Values quoted from earlier work, collected in patent US20160243064A1, “NOVEL ORAL PHARMACEUTICAL COMPOSITIONS OF TREPROSTINIL” (Gavis Pharmaceuticals, priority 2015, published 2016).

Conditions: free acid, as taught by the cited US patents

- oral absolute bioavailability: less than 10%
Structure (SMILES): CCCCC[C@H](O)CC[C@@H]1[C@H]2Cc3cccc(OCC(=O)O)c3C[C@H]2C[C@H]1O [treprostinil]
